Measurements as given in EPA's ToxRefDB 2.

Tests used:
[1] = system: rat; conditions: Sub-acute dermal toxicity, sprague dawley, Topical, dose end: 21 day, group: systemic, systemic / in life observation / clinical signs / desquamation + systemic / in life observation / clinical signs / erythema + systemic / …
[2] = system: rat; conditions: Multigenerational reproductive toxicity study, sprague dawley, Oral, Feed, dose end: 2 generation
[3] = system: rat; conditions: Prenatal developmental toxicity study, wistar, Oral, Gavage/Intubation, dose end: 8 GD, group: maternal
[4] = system: dog; conditions: Subchronic oral toxicity in nonrodent, beagle, Feed, dose end: 90 day, group: systemic, systemic / in life observation / clinical signs / pulse/pressure + systemic / organ weight / liver / nos
[5] = system: mouse; conditions: Carcinogenicity, cd1, Oral, Feed, dose end: 105 week, group: systemic
[6] = system: rat; conditions: Combined chronic toxicity/carcinogenicity, sprague dawley, Oral, Feed, dose end: 30 month, group: systemic
[7] = system: dog; conditions: Chronic toxicity; beagle; Oral; Feed; dose end: 52 week; group: systemic; systemic / clinical chemistry / alkaline phosphatase (alp/alk) / alkaline phosphatase (alp/alk) + systemic / clinical chemistry / …
[8] = system: dog; conditions: Subchronic oral toxicity in nonrodent, beagle, Capsule, dose end: 90 day, group: systemic, systemic / clinical chemistry / alanine aminotransferase (alt/sgpt) / alanine aminotransferase (alt/sgpt) + systemic / clinical chemistry / …
[9] = system: rat; conditions: Subchronic oral toxicity in rodents, sprague dawley, Gavage/Intubation, dose end: 90 day, group: systemic
[10] = system: rat; conditions: Multigenerational reproductive toxicity study, sprague dawley, Oral, Gavage/Intubation, dose end: 1 generation
[11] = system: mouse; conditions: Carcinogenicity, cd1, Oral, Feed, dose end: 102 week, group: systemic
[12] = system: rat; conditions: Subchronic oral toxicity in rodents, sprague dawley, Feed, dose end: 13 week
[13] = system: rat; conditions: Combined chronic toxicity/carcinogenicity, other, Oral, Feed, dose end: 104 week
[14] = system: dog; conditions: Chronic toxicity, beagle, Oral, Capsule, dose end: 12 month
[15] = system: dog; conditions: Subchronic oral toxicity in nonrodent, beagle, Capsule, dose end: 90 day
[16] = system: mouse; conditions: Subchronic oral toxicity in rodents, b6c3f1, Water, dose end: 13 week
[17] = system: mouse; conditions: Carcinogenicity, b6c3f1, Oral, Water, dose end: 2 year, group: systemic
[18] = system: rat; conditions: Subchronic oral toxicity in rodents, fischer, Water, dose end: 13 week, group: systemic
[19] = system: dog; conditions: Subchronic oral toxicity in nonrodent, beagle, Feed, dose end: 13 week, group: systemic
[20] = system: dog; conditions: Chronic toxicity; beagle; Oral; Feed; dose end: 52 week; group: systemic; systemic / clinical chemistry / alkaline phosphatase (alp/alk) / alkaline phosphatase (alp/alk) + systemic / organ weight / liver / absolute…
[21] = system: mouse; conditions: Carcinogenicity; cd1; Oral; Feed; dose end: 18 month; group: systemic; systemic / pathology microscopic / lung / adenoma
[22] = system: rat; conditions: Combined chronic toxicity/carcinogenicity; sprague dawley; Oral; [Not Specified]; dose end: 24 month; group: systemic; systemic / hematology / erythrocyte (rbc) count differential / erythrocyte (rbc)
[23] = group: offspring, developmental / developmental landmark / vaginal opening / vaginal opening + systemic / in life observation / body weight / offspring (pup) …
[24] = group: parental, systemic / in life observation / body weight / body weight + systemic / in life observation / body weight / body weight gain
[25] = reproductive / reproductive performance / postimplantation loss / postimplantation loss + systemic / in life observation / body weight / …
[26] = systemic / in life observation / food consumption / food consumption
[27] = systemic / in life observation / body weight / body weight + systemic / in life observation / body weight / body weight gain + systemic / …
[28] = systemic / clinical chemistry / thyroxine (t4) / thyroxine (t4), total + systemic / organ weight / liver / absolute + systemic / organ …
[29] = systemic / in life observation / body weight / body weight gain
[30] = systemic / in life observation / body weight / body weight gain + systemic / clinical chemistry / cholesterol / cholesterol + systemic / …
[31] = group: offspring, systemic / organ weight / kidney / absolute + systemic / organ weight / liver / absolute
[32] = group: offspring, systemic / organ weight / kidney / absolute + systemic / organ weight / liver / absolute + systemic / in life observation / body weight / …
[33] = group: parental, systemic / organ weight / kidney / absolute + systemic / organ weight / liver / absolute
[34] = group: parental, systemic / organ weight / kidney / absolute + systemic / organ weight / liver / absolute + systemic / in life observation / body weight / …
[35] = group: reproductive, reproductive / reproductive performance / reproductive performance other / NOS + reproductive / reproductive performance / fertility / …
[36] = systemic / pathology microscopic / adrenal gland / pigmentation
[37] = systemic / pathology microscopic / adrenal gland / pigmentation + systemic / in life observation / body weight / body weight + systemic / in…
[38] = group: cholinesterase, cholinesterase / cholinesterase / cholinesterase / erythrocyte cholinesterase (che)
[39] = group: systemic, systemic / pathology microscopic / adrenal gland / vacuolization cytoplasmic
[40] = group: systemic, systemic / hematology / erythrocyte (rbc) count differential / erythrocyte (rbc) + systemic / hematology / hematocrit (hct) / hematocrit (…
[41] = group: systemic, systemic / urinalysis / volume / volume
[42] = group: cholinesterase, cholinesterase / cholinesterase / cholinesterase / plasma cholinesterase (che)
[43] = group: systemic, systemic / clinical chemistry / alanine aminotransferase (alt/sgpt) / alanine aminotransferase (alt/sgpt)
[44] = group: systemic, systemic / clinical chemistry / alanine aminotransferase (alt/sgpt) / alanine aminotransferase (alt/sgpt) + systemic / hematology / …
[45] = group: cholinesterase, cholinesterase / cholinesterase / cholinesterase / plasma cholinesterase (che) + cholinesterase / cholinesterase / cholinesterase / brain …
[46] = group: systemic, systemic / pathology microscopic / adrenal gland / cytoplasmic alteration + systemic / pathology microscopic / adrenal gland / hypertrophy
[47] = group: maternal, reproductive / reproductive performance / estrous cycle / abnormal
[48] = group: systemic, systemic / in life observation / body weight / body weight + systemic / in life observation / body weight / body weight gain + systemic / in…
[49] = systemic / in life observation / body weight / body weight + systemic / organ weight / lung / absolute + systemic / pathology microscopic / …
[50] = systemic / pathology microscopic / liver / angiectasis + systemic / pathology microscopic / liver / eosinophilic focus + systemic / …
[51] = systemic / hematology / [other] / [other] + systemic / hematology / jolly bodies / jolly bodies + systemic / hematology / leukocyte (wbc) …
[52] = systemic / hematology / leukocyte (wbc) count differential / leukocyte (wbc) + systemic / hematology / lymphocyte / lymphocyte
[53] = systemic / clinical chemistry / albumin / albumin + systemic / clinical chemistry / albumin-globulin ratio / albumin-globulin ratio + …

ClCCCCCCCl [1,6-Dichlorohexane]
LEL [1]: 100 mg/kg/day
LOAEL [1]: 100 mg/kg/day
NEL [1]: < 100 mg/kg/day
NOAEL [1]: < 100 mg/kg/day

CC(C)(C)CC(C)(C)c1ccc(O)cc1 [4-(1,1,3,3-Tetramethylbutyl)phenol]
LEL [2, 23]: 100 mg/kg/day
LOAEL [2, 23]: > 100 mg/kg/day
NEL [2, 23]: 10 mg/kg/day
NOAEL [2, 23]: ≥ 100 mg/kg/day
LEL [2, 24]: 100 mg/kg/day
LOAEL [2, 24]: > 100 mg/kg/day
NEL [2, 24]: 10 mg/kg/day
NOAEL [2, 24]: ≥ 100 mg/kg/day
LOAEL [3, 25]: > 125 mg/kg/day
NOAEL [3, 25]: ≥ 125 mg/kg/day
LEL [3, 26]: 15.6 mg/kg/day
NEL [3, 26]: < 15.6 mg/kg/day

Clc1ccccc1-c1nnc(-c2ccccc2Cl)nn1 [Clofentezine]
LEL [4]: 80 mg/kg/day
LOAEL [4]: 80 mg/kg/day
NEL [4]: < 80 mg/kg/day
NOAEL [4]: < 80 mg/kg/day
LOAEL [5, 27]: > 544 mg/kg/day
NEL [5, 27]: 5 mg/kg/day
NOAEL [5, 27]: ≥ 544 mg/kg/day
LEL ([5]; systemic / pathology gross / liver / mass): 50.7 mg/kg/day
LEL [6, 28]: 17.3 mg/kg/day
LOAEL [6, 28]: 17.3 mg/kg/day
NOAEL [6, 28]: 1.72 mg/kg/day
NEL ([6]; systemic / pathology microscopic / liver / hypertrophy + systemic / pathology microscopic / liver / vacuolization): 1.72 mg/kg/day
LEL [7]: 25 mg/kg/day
LOAEL [7]: 25 mg/kg/day
NEL [7]: 1.25 mg/kg/day
NOAEL [7]: 1.25 mg/kg/day

CCOc1ccc2c(c1)C(C)=CC(C)(C)N2 [Ethoxyquin]
LEL [8]: 4 mg/kg/day
LOAEL [8]: 4 mg/kg/day
NEL [8]: 2 mg/kg/day
NOAEL [8]: 2 mg/kg/day
LEL [9, 29]: 40 mg/kg/day
LOAEL [9, 29]: 40 mg/kg/day
NEL [9, 30]: 20 mg/kg/day
NOAEL [9, 30]: 20 mg/kg/day
LEL [10, 31]: 75 mg/kg/day
NEL [10, 31]: < 75 mg/kg/day
LOAEL [10, 32]: > 300 mg/kg/day
NOAEL [10, 32]: ≥ 300 mg/kg/day
LEL [10, 33]: 75 mg/kg/day
NEL [10, 33]: < 75 mg/kg/day
LOAEL [10, 34]: > 300 mg/kg/day
NOAEL [10, 34]: ≥ 300 mg/kg/day
LEL [10, 35]: 300 mg/kg/day
LOAEL [10, 35]: > 300 mg/kg/day
NEL [10, 35]: 150 mg/kg/day
NOAEL [10, 35]: ≥ 300 mg/kg/day

CCOP(=O)(SC(C)CC)N1CCSC1=O (stereo not given) [Fosthiazate]
LEL [11, 36]: 10.4 mg/kg/day
LOAEL [11, 36]: 10.4 mg/kg/day
NEL [11, 37]: 3.2 mg/kg/day
NOAEL [11, 37]: 3.2 mg/kg/day
LEL [12, 38]: 0.09 mg/kg/day
LOAEL [12, 38]: 0.09 mg/kg/day
NEL [12, 38]: < 0.09 mg/kg/day
NOAEL [12, 38]: < 0.09 mg/kg/day
LEL [12, 39]: 0.08 mg/kg/day
LOAEL [12, 39]: 0.08 mg/kg/day
NEL [12, 39]: < 0.08 mg/kg/day
NOAEL [12, 39]: < 0.08 mg/kg/day
LEL [13, 38]: 0.051 mg/kg/day
LOAEL [13, 38]: 0.38 mg/kg/day
NEL [13, 38]: < 0.051 mg/kg/day
NOAEL ([13]; group: cholinesterase, cholinesterase / cholinesterase / cholinesterase / erythrocyte cholinesterase (che) + cholinesterase / cholinesterase / cholinesterase / …): 0.039 mg/kg/day
LOAEL [13, 40]: 2.45 mg/kg/day
NOAEL [13, 40]: 0.5 mg/kg/day
LEL [13, 41]: 0.039 mg/kg/day
NEL [13, 41]: < 0.039 mg/kg/day
LEL [14, 42]: 0.5 mg/kg/day
LOAEL [14, 42]: 0.5 mg/kg/day
NEL [14, 42]: 0.1 mg/kg/day
NOAEL [14, 42]: 0.1 mg/kg/day
LEL [14, 43]: 0.5 mg/kg/day
LOAEL [14, 43]: 0.5 mg/kg/day
NEL [14, 44]: 0.1 mg/kg/day
NOAEL [14, 44]: 0.1 mg/kg/day
LEL [15, 42]: 0.11 mg/kg/day
LOAEL [15, 42]: 0.11 mg/kg/day
NEL [15, 45]: 0.054 mg/kg/day
NOAEL [15, 45]: 0.054 mg/kg/day
LEL [15, 46]: 0.11 mg/kg/day
LOAEL [15, 46]: 0.11 mg/kg/day
NEL [15, 46]: 0.054 mg/kg/day
NOAEL [15, 46]: 0.054 mg/kg/day

CCOC(N)=O [Urethane]
LEL [16, 47]: 147 mg/kg/day
LOAEL [16, 47]: > 1330 mg/kg/day
NEL [16, 47]: 44 mg/kg/day
NOAEL [16, 47]: ≥ 1330 mg/kg/day
LOAEL [16, 48]: > 1330 mg/kg/day
NEL [16, 48]: 44 mg/kg/day
NOAEL [16, 48]: ≥ 1330 mg/kg/day
LEL ([16]; group: systemic, systemic / in life observation / body weight / body weight + systemic / in life observation / body weight / body weight gain + systemic / …): 147 mg/kg/day
LOAEL [17, 49]: 0.325 mg/kg/day
NOAEL [17, 49]: 0.105 mg/kg/day
LEL [17, 50]: 0.035 mg/kg/day
NEL [17, 50]: < 0.035 mg/kg/day
LOAEL [18, 51]: > 525 mg/kg/day
NOAEL [18, 51]: ≥ 525 mg/kg/day
LEL [18, 52]: 11 mg/kg/day
NEL [18, 52]: < 11 mg/kg/day

CCC(C)(NC(=O)c1cc(Cl)c(C)c(Cl)c1)C(=O)CCl (stereo not given) [Zoxamide]
LOAEL [19, 53]: 1050 mg/kg/day
NEL [19, 53]: 61.8 mg/kg/day
NOAEL [19, 53]: 322 mg/kg/day
LEL ([19]; systemic / organ weight / liver / absolute + systemic / organ weight / liver / relative to body weight): 322 mg/kg/day
LEL [20]: 255 mg/kg/day
LOAEL [20]: 255 mg/kg/day
NEL [20]: 50 mg/kg/day
NOAEL [20]: 50 mg/kg/day
LEL [21]: 1290 mg/kg/day
LOAEL [21]: > 1290 mg/kg/day
NEL [21]: 326 mg/kg/day
NOAEL [21]: ≥ 1290 mg/kg/day
LEL [22]: 51 mg/kg/day
LOAEL [22]: > 1060 mg/kg/day
NEL [22]: < 51 mg/kg/day
NOAEL [22]: ≥ 1060 mg/kg/day
